Experimental data published in ChEMBL document CHEMBL1201862, “PubChem BioAssay data set” (2004).
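A five-concentration, 48-hour dose response in 96-well plates underlies each endpoint, interpolated linearly between surrounding concentrations. Here, GI50 denotes the concentration required for 50% inhibition of growth.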 Activity calls are given as the source filed them. No stated cut-off is given here; in the data, active = GI50 up to about 1.1 µM and inactive = higher.

Experiments:
Test in all cases: NCI-60 cell line screen, 48 h
786-0 = tested on: 786-0
A498 = tested on: A498
A549 = tested on: A549
ACHN = tested on: ACHN
CAKI-1 = tested on: CAKI-1
CCRF-CEM = tested on: CCRF-CEM
COLO 205 = tested on: COLO 205
DU-145 = tested on: DU-145
EKVX = tested on: EKVX
HCC 2998 = tested on: HCC 2998
HCT-116 = tested on: HCT-116
HCT-15 = tested on: HCT-15
HOP-62 = tested on: HOP-62
HOP-92 = tested on: HOP-92
Hs-578T = tested on: Hs-578T
K562 = tested on: K562
KM12 = tested on: KM12
LOX IMVI = tested on: LOX IMVI
M14 = tested on: M14
MCF7 = tested on: MCF7
MDA-MB-231 = tested on: MDA-MB-231
MDA-MB-435 = tested on: MDA-MB-435
MDA-N = tested on: MDA-N
NCI-H226 = tested on: NCI-H226
NCI/ADR-RES = tested on: NCI/ADR-RES
OVCAR-3 = tested on: OVCAR-3
OVCAR-4 = tested on: OVCAR-4
OVCAR-5 = tested on: OVCAR-5
OVCAR-8 = tested on: OVCAR-8
PC-3 = tested on: PC-3
RPMI-8226 = tested on: RPMI-8226
RXF 393 = tested on: RXF 393
SF-268 = tested on: SF-268
SF-295 = tested on: SF-295
SF-539 = tested on: SF-539
SK-MEL-28 = tested on: SK-MEL-28
SK-MEL-2 = tested on: SK-MEL-2
SK-MEL-5 = tested on: SK-MEL-5
SK-OV-3 = tested on: SK-OV-3
SN12C = tested on: SN12C
SNB-19 = tested on: SNB-19
SNB-75 = tested on: SNB-75
SW-620 = tested on: SW-620
T47D = tested on: T47D
TK-10 = tested on: TK-10
U-251 = tested on: U-251
UACC-257 = tested on: UACC-257
UACC-62 = tested on: UACC-62
UO-31 = tested on: UO-31
HT-29 = tested on: HT-29
IGROV-1 = tested on: IGROV-1
MOLT-4 = tested on: MOLT-4
Malme-3M = tested on: Malme-3M
NCI-H23 = tested on: NCI-H23
SR = tested on: SR
NCI-H522 = tested on: NCI-H522

For COc1cccc([C@@H]2CC(=O)c3cc4c(cc3N2)OCO4)c1, the GI50 (786-0) was > 100 µM (inactive), the GI50 (A498) was > 100 µM (inactive) and the GI50 (A549) was > 100 µM (inactive). For the same molecule, the GI50 (ACHN) was > 100 µM (inactive), the GI50 (CAKI-1) was > 100 µM (inactive) and the GI50 (CCRF-CEM) was > 100 µM (inactive). The GI50 (COLO 205) was > 100 µM (inactive), the GI50 (DU-145) was > 100 µM (inactive) and the GI50 (EKVX) was > 100 µM (inactive). The GI50 (HCC 2998) was > 100 µM (inactive), the GI50 (HCT-116) was > 100 µM (inactive) and the GI50 (HCT-15) was over 100 µM. For the same molecule, the GI50 (HOP-62) was > 100 µM (inactive), the GI50 (HOP-92) was > 100 µM (inactive) and the GI50 (Hs-578T) was 64.9 µM (inactive). The GI50 (K562) was 98.4 µM (inactive), the GI50 (KM12) was > 100 µM (inactive) and the GI50 (LOX IMVI) was > 100 µM (inactive). For the same molecule, the GI50 (M14) was > 100 µM (inactive), the GI50 (MCF7) was > 100 µM (inactive) and the GI50 (MDA-MB-231) was > 100 µM (inactive). The GI50 (MDA-MB-435) was 71.6 µM (inactive), the GI50 (MDA-N) was > 100 µM (inactive) and the GI50 (NCI-H226) was > 100 µM (inactive). For the same molecule, the GI50 (NCI/ADR-RES) was > 100 µM (inactive), the GI50 (OVCAR-3) was > 100 µM (inactive) and the GI50 (OVCAR-4) was > 100 µM (inactive). For the same molecule, the GI50 (OVCAR-5) was > 100 µM (inactive), the GI50 (OVCAR-8) was > 100 µM (inactive) and the GI50 (PC-3) was > 100 µM (inactive). For the same molecule, the GI50 (RPMI-8226) was 76.4 µM (inactive), the GI50 (RXF 393) was > 100 µM (inactive) and the GI50 (SF-268) was > 100 µM (inactive). For the same molecule, the GI50 (SF-295) was > 100 µM (inactive), the GI50 (SF-539) was > 100 µM (inactive) and the GI50 (SK-MEL-28) was > 100 µM (inactive). For the same molecule, the GI50 (SK-MEL-2) was > 100 µM (inactive), the GI50 (SK-MEL-5) was 96.8 µM (inactive) and the GI50 (SK-OV-3) was > 100 µM (inactive). The GI50 (SN12C) was > 100 µM (inactive), the GI50 (SNB-19) was > 100 µM (inactive) and the GI50 (SNB-75) was 86.3 µM (inactive). The GI50 (SW-620) was > 100 µM (inactive), the GI50 (T47D) was > 100 µM (inactive) and the GI50 (TK-10) was > 100 µM (inactive). For the same molecule, the GI50 (U-251) was > 100 µM (inactive), the GI50 (UACC-257) was > 100 µM (inactive) and the GI50 (UACC-62) was 65.3 µM (inactive). The GI50 (UO-31) was > 100 µM (inactive).

With CC1[C@@H](OCc2ccccc2)COC(=O)N1Cc1ccccc1 (stereo partly specified) the GI50 (786-0) was > 100 µM (inactive), the GI50 (A549) was 85.9 µM (inactive) and the GI50 (ACHN) was > 100 µM (inactive). The GI50 (CCRF-CEM) was > 100 µM (inactive), the GI50 (COLO 205) was > 100 µM (inactive) and the GI50 (DU-145) was > 100 µM (inactive). The GI50 (EKVX) was 78.9 µM (inactive), the GI50 (HCT-116) was > 100 µM (inactive) and the GI50 (HCT-15) was over 100 µM. The GI50 (HOP-62) was > 100 µM (inactive), the GI50 (HOP-92) was 5.27 µM (inactive) and the GI50 (HT-29) was > 100 µM (inactive). For the same molecule, the GI50 (Hs-578T) was > 100 µM (inactive), the GI50 (IGROV-1) was > 100 µM (inactive) and the GI50 (K562) was 60 µM (inactive). The GI50 (KM12) was > 100 µM (inactive), the GI50 (LOX IMVI) was > 100 µM (inactive) and the GI50 (M14) was > 100 µM (inactive). For the same molecule, the GI50 (MCF7) was 81.8 µM (inactive), the GI50 (MDA-MB-231) was > 100 µM (inactive) and the GI50 (MDA-MB-435) was > 100 µM (inactive). The GI50 (MDA-N) was > 100 µM (inactive), the GI50 (MOLT-4) was 33.3 µM (inactive) and the GI50 (Malme-3M) was > 100 µM (inactive). The GI50 (NCI-H226) was > 100 µM (inactive), the GI50 (NCI-H23) was 52.1 µM (inactive) and the GI50 (NCI/ADR-RES) was 49.4 µM (inactive). For the same molecule, the GI50 (OVCAR-3) was > 100 µM (inactive), the GI50 (OVCAR-4) was 78 µM (inactive) and the GI50 (OVCAR-5) was > 100 µM (inactive). The GI50 (OVCAR-8) was > 100 µM (inactive), the GI50 (PC-3) was 93.8 µM (inactive) and the GI50 (RPMI-8226) was 52.2 µM (inactive). For the same molecule, the GI50 (SF-268) was > 100 µM (inactive), the GI50 (SF-295) was 46.2 µM (inactive) and the GI50 (SK-MEL-28) was > 100 µM (inactive). For the same molecule, the GI50 (SK-MEL-2) was > 100 µM (inactive), the GI50 (SK-MEL-5) was 69.5 µM (inactive) and the GI50 (SK-OV-3) was > 100 µM (inactive). For the same molecule, the GI50 (SN12C) was > 100 µM (inactive), the GI50 (SNB-19) was > 100 µM (inactive) and the GI50 (SNB-75) was > 100 µM (inactive). The GI50 (SR) was > 100 µM (inactive), the GI50 (SW-620) was > 100 µM (inactive) and the GI50 (TK-10) was > 100 µM (inactive). The GI50 (U-251) was > 100 µM (inactive), the GI50 (UACC-257) was 68.4 µM (inactive) and the GI50 (UACC-62) was > 100 µM (inactive). The GI50 (UO-31) was 32.7 µM (inactive).

For COC(C)(C)C1(O)CC[C@@H](C)CC1=O (stereo partly specified), the GI50 (A498) was > 100 µM (inactive), the GI50 (A549) was > 100 µM (inactive) and the GI50 (ACHN) was > 100 µM (inactive). The GI50 (DU-145) was > 100 µM (inactive), the GI50 (EKVX) was > 100 µM (inactive) and the GI50 (HCT-116) was > 100 µM (inactive). The GI50 (HCT-15) was over 100 µM, the GI50 (HOP-62) was > 100 µM (inactive) and the GI50 (KM12) was > 100 µM (inactive). The GI50 (M14) was > 100 µM (inactive), the GI50 (MCF7) was > 100 µM (inactive) and the GI50 (MDA-MB-435) was > 100 µM (inactive). For the same molecule, the GI50 (Malme-3M) was > 100 µM (inactive), the GI50 (NCI-H23) was > 100 µM (inactive) and the GI50 (NCI-H522) was > 100 µM (inactive). The GI50 (OVCAR-4) was > 100 µM (inactive), the GI50 (OVCAR-5) was > 100 µM (inactive) and the GI50 (RPMI-8226) was > 100 µM (inactive). The GI50 (SF-268) was > 100 µM (inactive), the GI50 (SF-295) was > 100 µM (inactive) and the GI50 (SF-539) was > 100 µM (inactive). For the same molecule, the GI50 (SK-MEL-28) was > 100 µM (inactive), the GI50 (SN12C) was > 100 µM (inactive) and the GI50 (SNB-75) was > 100 µM (inactive). The GI50 (SW-620) was > 100 µM (inactive), the GI50 (TK-10) was > 100 µM (inactive) and the GI50 (UACC-257) was > 100 µM (inactive). The GI50 (UACC-62) was > 100 µM (inactive).
